One data set addresses T1, CYP3A4 (Homo sapiens, UniProt P08684).
T1 construct: purchased Gentest
Nature of the data set: Cytochrome P450 assay (Gentest Kit), CYP3A4. The format is in vitro ADME. As to the method:
(§1) Inhibition of the five most important Cytochrome P450 isoforms (CYP1A2, CYP2C9, CYP2C19, CYP2D6 and CYP3A4), involved in drug metabolism, was measured using specific substrates that become fluorescent upon CYP metabolism (Gentest Kit assay).
(§2) Compounds were tested in a 96-well plate containing incubation/NADPH regenerating buffer. Specific human recombinant isoenzymes and substrates were added and incubated at 37° C. for 15 min for CYP1A2/CEC, 40 min for CYP2E1/MFC, 45 min for CYP2C9/MFC and 30 min for the others CYP450.
(§3) The specific substrates were the following: 3-cyano-7-ethoxycoumarin (CYP2C19 and CYP1A2), • 7-methoxy-4-trifluoromethylcoumarin (CYP2C9), • 3[2(N,N-diethyl-N-methylamino)ethyl]-7-methoxy-4-methylcoumarin (CYP2D6) • benzylphenylcoumarin (CYP3A4)

Data set [1] concerns human neuroblastoma cell line SH-SY-5Y. Put plainly: Cytotoxicity assay in human neuroblastoma cell line SH-SY-5Y. The format is cell-based. As to the method:
(§4) At time zero, the cells were seeded at 1.10^4/cm^2 in 96 well plates in DMEM growth medium+10% heat inactivated FBS+2 mM 1-Glutamine+100 U/mL-100 μg/mL Penicillin/Streptomycin.
(§5) After 72 hours at subconfluent phase of growth, the medium was removed and cells were incubated for 24 hours at 37° C. in 180 μL of neurobasal medium+2 mM 1-Glutamine (Life Techonologies) with or without test compounds (20 μL, at least 5 concentrations in triplicate).
(§6) At the end of incubation, 20 μL of Alamar Blue dye (AlamarBlue™ Assay Kit, Promega) were directly added to the cell medium.
(§7) Four hours after, the cytotoxicity was assessed by measuring the fluorescence at 530 nm excitation and 595 nm emission using Tecan Spectrafluor plate reader.
(§8) Before and at the end of the treatment, the cultures were monitored microscopically by an Olympus IX70 inverted light microscope matched to an Image Analyzer (Image Pro Plus, 5.1) to evaluate the cellular morphology.
(§9) Results are expressed in Table 1 as concentration inducing 50% of mortality.

The target of a further data set is T2, CYP2C19 (Homo sapiens, UniProt P33261).
T2 construct: purchased Gentest
T2 sequence (P33261 whole entry): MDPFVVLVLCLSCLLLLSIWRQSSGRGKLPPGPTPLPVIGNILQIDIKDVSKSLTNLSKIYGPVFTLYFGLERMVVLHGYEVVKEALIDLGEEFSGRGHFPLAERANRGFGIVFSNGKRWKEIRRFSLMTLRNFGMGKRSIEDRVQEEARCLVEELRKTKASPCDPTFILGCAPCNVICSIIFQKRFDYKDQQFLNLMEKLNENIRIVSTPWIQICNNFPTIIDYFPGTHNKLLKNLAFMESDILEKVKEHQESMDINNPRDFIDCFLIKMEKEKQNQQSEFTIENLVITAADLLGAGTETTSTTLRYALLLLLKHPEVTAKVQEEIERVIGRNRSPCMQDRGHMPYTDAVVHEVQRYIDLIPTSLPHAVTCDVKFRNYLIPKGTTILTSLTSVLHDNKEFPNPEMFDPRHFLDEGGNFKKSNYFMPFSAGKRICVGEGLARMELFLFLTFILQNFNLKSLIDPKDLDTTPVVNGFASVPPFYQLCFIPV
Put plainly: Cytochrome P450 assay (Gentest Kit), CYP2C19. It counts as in vitro ADME. As to the method:
as §1, §2, §3

A further data set deals with T3, CYP2D6 (Homo sapiens, UniProt P10635).
T3 construct: purchased Gentest
T3 sequence (P10635 whole entry): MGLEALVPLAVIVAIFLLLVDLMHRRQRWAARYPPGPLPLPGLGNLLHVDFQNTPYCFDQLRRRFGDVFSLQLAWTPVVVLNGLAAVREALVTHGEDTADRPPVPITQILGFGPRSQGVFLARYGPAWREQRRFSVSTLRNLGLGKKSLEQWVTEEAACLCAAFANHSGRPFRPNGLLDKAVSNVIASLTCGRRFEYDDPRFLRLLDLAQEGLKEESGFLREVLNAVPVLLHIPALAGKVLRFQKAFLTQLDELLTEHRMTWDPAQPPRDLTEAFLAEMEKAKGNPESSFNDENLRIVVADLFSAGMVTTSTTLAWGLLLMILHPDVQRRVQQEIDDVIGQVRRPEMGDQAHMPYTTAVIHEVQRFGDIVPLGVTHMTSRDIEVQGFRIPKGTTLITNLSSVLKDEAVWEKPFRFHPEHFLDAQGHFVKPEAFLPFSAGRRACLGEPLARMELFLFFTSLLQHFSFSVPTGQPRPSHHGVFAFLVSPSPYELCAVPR
Nature of the data set: Cytochrome P450 assay (Gentest Kit), CYP2D6. The format is in vitro ADME. On the procedure:
as §1, §2, §3

Data set [2] addresses T4, recombinant HERG channel (Homo sapiens, UniProt Q12809).
Experimental: (§10) The inhibition of HERG current was tested in CHO cells stably expressing recombinant HERG channel.
(§11) To evaluate the effect of the test compounds on HERG currents, cells were clamped at −80 mV, depolarised to 0 mV for 5 seconds allowing activation of HERG current and repolarised to −50 mV during 5 seconds allowing HERG tail current to deactivate. This procedure was repeated at a frequency of 0.06 Hz. The current amplitude upon repolarisation (HERG tail current) was measured before and after exposure to the test compound.
(§12) Inhibition of current was calculated as the difference between the amplitude of HERG tail current amplitude measured at the end of external bath perfusion period and HERG tail current measured at the end of test compound perfusion period (when steady-state effect is reached) divided by control HERG tail current.
(§13) Drug concentration-inhibition curves were obtained by plotting tonic blocks versus drug concentrations. Dose-response curves were fitted to the tonic block data, according to the logistic equation: y=A2+(A1−A2)/[1+(x/IC50)^p].
The target of another data set is T5, CYP2C9 (Homo sapiens, UniProt P11712).
T5 construct: purchased Gentest
T5 sequence (P11712 whole entry): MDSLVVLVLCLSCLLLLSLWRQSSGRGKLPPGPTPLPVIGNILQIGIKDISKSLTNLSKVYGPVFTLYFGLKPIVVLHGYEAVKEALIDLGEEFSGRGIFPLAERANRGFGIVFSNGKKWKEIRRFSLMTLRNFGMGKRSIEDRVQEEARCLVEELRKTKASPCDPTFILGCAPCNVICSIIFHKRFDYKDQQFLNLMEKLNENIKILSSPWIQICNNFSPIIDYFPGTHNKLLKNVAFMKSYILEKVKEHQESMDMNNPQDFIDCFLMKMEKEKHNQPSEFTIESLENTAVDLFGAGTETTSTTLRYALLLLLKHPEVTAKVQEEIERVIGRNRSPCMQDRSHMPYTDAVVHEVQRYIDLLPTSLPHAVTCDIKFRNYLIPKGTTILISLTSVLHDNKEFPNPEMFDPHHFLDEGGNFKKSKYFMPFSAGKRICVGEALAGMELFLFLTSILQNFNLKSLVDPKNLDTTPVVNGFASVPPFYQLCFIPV
Nature of the data set: Cytochrome P450 assay (Gentest Kit), CYP2C9. It counts as in vitro ADME. As to the method:
as §1, §2, §3

The next data set concerns the target T6, CYP1A2 (Homo sapiens, UniProt P05177).
T6 construct: purchased Gentest
T6 sequence (P05177 1-516): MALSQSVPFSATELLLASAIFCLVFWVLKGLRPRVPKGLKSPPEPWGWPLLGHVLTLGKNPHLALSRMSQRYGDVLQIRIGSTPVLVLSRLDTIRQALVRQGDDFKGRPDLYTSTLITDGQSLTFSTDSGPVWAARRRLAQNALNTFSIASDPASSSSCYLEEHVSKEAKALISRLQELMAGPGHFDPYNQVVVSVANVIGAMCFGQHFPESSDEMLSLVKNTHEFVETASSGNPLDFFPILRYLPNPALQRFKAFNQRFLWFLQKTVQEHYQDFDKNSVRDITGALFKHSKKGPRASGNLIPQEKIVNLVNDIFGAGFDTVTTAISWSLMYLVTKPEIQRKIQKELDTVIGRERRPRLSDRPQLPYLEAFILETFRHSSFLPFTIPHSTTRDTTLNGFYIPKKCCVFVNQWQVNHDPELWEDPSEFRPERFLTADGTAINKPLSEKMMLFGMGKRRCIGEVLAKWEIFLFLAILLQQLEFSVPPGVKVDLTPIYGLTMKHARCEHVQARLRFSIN
Nature of the data set: in vitro. The format is in vitro ADME. On the procedure: as §1, §2, §3

Another data set has as its system Male CD1 mice. The format is in vivo. On the procedure:
The maximal electroshock test (MES) is used commonly in the screening of anti-epileptic drugs in rodent models.
Animals and Apparatus: Male CD1 mice weighing 25 g were used. […] The stimulus was delivered intra-aurally through clip electrodes in mice (0.7 seconds of a 40 mA shock, with a pulse train of 80 Hz having a pulse duration of 0.4 ms). The acute effect of compounds administered intraperitoneally or orally 15-60 min before MES induction were examined and compared with a vehicle control group. Ten mice were studied per group. Complete suppression of the hindlimb tonic extensor component of seizures was taken as evidence of anticonvulsant activity.
The compounds of the invention were administered orally or intraperitoneally at the doses of 3-30 mg/kg.
The results are expressed in Tables 3 and 4 as % of protection.

A short description of data set [3]: Cytotoxicity assay in human neuroblastoma cell line SH-SY-5Y. The format is cell-based. Particulars: human, SH-SY-5Y neuroblastoma cells; SH-SY-5Y, 24 hours incubation, Alamar Blue; concentration inducing 50% of mortality. On the procedure: as §4, §5, §6, §7, §8, §9
(Resazurin is reduced to fluorescent resorufin, in cell work by metabolically active cells.)

In data set [4] the target is T4, recombinant HERG channel. Nature of the data set: HERG current in transfected CHO cell lines.
Experimental: as §10, §11, §12, §13
The mark [5] stands for this setting: Table 1, human recombinant isoenzyme, substrate benzylphenylcoumarin, read-out: CYP3A4 IC50.
Where [6] appears, read: human recombinant isoenzyme, substrate 3-cyano-7-ethoxycoumarin, read-out: CYP2C19 IC50.
The mark [7] stands for this setting: human recombinant isoenzyme, fluorescent substrate, read-out: CYP2D6 IC50.
[8] abbreviates: human recombinant isoenzyme, substrate 7-methoxy-4-trifluoromethylcoumarin, read-out: CYP2C9 IC50.

Like-named read-outs stand apart in the source and are kept apart here.

By IC50 is commonly meant the concentration at which inhibition is half-maximal.

T1 sequence (P08684 whole entry): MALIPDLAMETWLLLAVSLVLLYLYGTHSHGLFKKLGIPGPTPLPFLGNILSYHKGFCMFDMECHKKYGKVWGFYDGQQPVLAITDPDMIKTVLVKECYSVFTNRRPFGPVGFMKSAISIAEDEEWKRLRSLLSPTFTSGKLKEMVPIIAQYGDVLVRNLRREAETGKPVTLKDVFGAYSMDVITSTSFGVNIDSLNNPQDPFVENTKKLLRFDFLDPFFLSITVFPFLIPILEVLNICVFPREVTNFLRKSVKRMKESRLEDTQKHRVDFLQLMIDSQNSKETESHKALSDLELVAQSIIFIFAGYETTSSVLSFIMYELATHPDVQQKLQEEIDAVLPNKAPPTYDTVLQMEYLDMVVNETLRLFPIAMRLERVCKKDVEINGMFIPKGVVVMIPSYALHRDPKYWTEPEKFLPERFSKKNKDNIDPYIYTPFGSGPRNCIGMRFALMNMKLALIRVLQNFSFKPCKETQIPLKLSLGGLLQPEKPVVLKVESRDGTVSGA
T4 sequence (Q12809 whole entry): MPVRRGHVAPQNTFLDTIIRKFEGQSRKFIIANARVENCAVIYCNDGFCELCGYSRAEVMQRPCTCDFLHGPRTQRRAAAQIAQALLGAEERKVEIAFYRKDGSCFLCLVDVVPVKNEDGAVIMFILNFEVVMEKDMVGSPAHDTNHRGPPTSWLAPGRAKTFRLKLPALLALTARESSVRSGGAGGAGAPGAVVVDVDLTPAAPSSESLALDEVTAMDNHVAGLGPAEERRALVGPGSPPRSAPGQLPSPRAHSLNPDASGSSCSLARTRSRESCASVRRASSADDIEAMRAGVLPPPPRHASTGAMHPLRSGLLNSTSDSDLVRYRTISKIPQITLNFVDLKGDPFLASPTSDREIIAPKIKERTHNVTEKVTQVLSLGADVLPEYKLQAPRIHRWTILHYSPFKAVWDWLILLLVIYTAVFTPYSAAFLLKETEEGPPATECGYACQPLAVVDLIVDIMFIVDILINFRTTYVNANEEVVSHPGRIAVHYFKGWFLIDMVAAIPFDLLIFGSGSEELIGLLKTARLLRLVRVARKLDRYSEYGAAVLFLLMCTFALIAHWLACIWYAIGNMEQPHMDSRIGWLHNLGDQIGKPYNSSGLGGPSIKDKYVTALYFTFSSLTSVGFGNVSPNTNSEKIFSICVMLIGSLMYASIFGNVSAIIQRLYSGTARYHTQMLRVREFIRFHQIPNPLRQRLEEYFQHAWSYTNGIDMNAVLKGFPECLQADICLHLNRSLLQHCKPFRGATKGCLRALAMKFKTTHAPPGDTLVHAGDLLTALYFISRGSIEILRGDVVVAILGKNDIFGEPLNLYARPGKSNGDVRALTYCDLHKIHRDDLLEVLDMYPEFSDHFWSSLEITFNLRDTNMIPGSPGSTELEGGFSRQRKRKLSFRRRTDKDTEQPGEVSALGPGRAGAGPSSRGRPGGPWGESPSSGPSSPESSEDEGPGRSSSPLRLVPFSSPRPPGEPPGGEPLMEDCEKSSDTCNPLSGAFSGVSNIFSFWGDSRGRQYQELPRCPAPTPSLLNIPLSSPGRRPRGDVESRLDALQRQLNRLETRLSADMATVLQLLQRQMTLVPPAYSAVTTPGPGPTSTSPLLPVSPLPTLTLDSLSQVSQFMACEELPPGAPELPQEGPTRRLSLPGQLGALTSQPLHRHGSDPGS

`C[C@@H](NCc1ccc(OCc2cccc(F)c2)c(Cc2cccc(F)c2)c1)C(N)=O` (racemic) [Impurity (IIc, II′c), (R,S)-2-[3-(3-fluorobenzyl)-4-(3-fluorobenzyloxy)-benzylamino]propanamide methanesulfonate]: the IC50 against CYP3A4 was 60 nM; in [1], 11800 nM; against CYP2C19, 170 nM; against CYP2D6, 310 nM; on recombinant HERG channel [2], below 1000 nM; against CYP2C9 it was 5570 nM. This compound also returned an IC50 at CYP1A2 of 28000 nM.

In the case of `C[C@@H](NCc1ccc(OCc2ccccc2F)c(Cc2ccccc2F)c1)C(N)=O` (racemic) [Impurity (IId, II′d), (R,S)-2-[3-(2-fluorobenzyl)-4-(2-fluorobenzyloxy)-benzylamino]propanamide methanesulfonate], the IC50 against CYP3A4 is 60 nM; in data set [1] it was 14300 nM; against CYP2C19, 30 nM; against CYP2D6 it was 1190 nM; at recombinant HERG channel [2], below 1000 nM; on CYP2C9, 4960 nM. Further, the IC50 on CYP1A2 was 39400 nM.

Consider `CS(=O)(=O)O.C[C@H](NCc1ccc(OCc2cccc(F)c2)c(Cc2cccc(F)c2)c1)C(N)=O` [Impurity (IIc), (S)-2-[3-(3-fluorobenzyl)-4-(3-fluorobenzyloxy)-benzylamino]propanamide methanesulfonate], for which the MES dead/live in the data set with Male CD1 mice (mice, 3 mg/kg ip) is given as 5/10; in the data set with Male CD1 mice (mice, 10 mg/kg ip) it was 4/10; in the data set with Male CD1 mice (mice, 30 mg/kg ip), 4/10. In addition, in the data set with Male CD1 mice (mice, ip, from 3 mg/kg), the “pharmacological activity, i.e. protection from convulsions, in MES test (in words)” value is on record as “without any pharmacological activity”. Besides, the “mortality in the mice MES test (in words)” value in the data set on Male CD1 mice (starting from 3 mg/kg ip) is “increases”.

Take `CS(=O)(=O)O.C[C@H](NCc1ccc(OCc2ccccc2F)c(Cc2ccccc2F)c1)C(N)=O` [Impurity (IId), (S)-2-[3-(2-fluorobenzyl)-4-(2-fluorobenzyloxy)-benzylamino]propanamide methanesulfonate]: the “MES dead/live” value with Male CD1 mice (mice, 10 mg/kg p.o.) was 0/10; in the data set on Male CD1 mice (mice, 20 mg/kg p.o.), 0/10. For the same compound, the “protection of mice from convulsions in MES test (in words)” value in the data set on Male CD1 mice (p.o. at 10 and 20 mg/kg, compared with same doses of ralfinamide methanesulfonate) is given as “doesn't protect mice from convulsions”.

For the compound `C[C@@H](NCc1ccc(OCc2cccc(F)c2)c(Cc2cccc(F)c2)c1)C(N)=O` [Impurity (II′c), (R)-2-[3-(3-fluorobenzyl)-4-(3-fluorobenzyloxy)-benzylamino]propanamide methanesulfonate], the IC50 on CYP3A4 (setting [5]) was 90 nM; on CYP2C19 (setting [6]), 150 nM; at CYP2D6 (setting [7]), 150 nM; on recombinant HERG channel [4], below 1000 nM; on CYP2C9 (setting [8]), 4940 nM; at CYP1A2 (human recombinant isoenzyme, substrate 3-cyano-7-ethoxycoumarin, read-out: CYP1A2 IC50), 29200 nM. For the same compound, the midpoint of inhibition in [3], the IC50 at 24 h, lay at 8810 nM.

In the case of `C[C@@H](NCc1ccc(OCc2ccccc2F)c(Cc2ccccc2F)c1)C(N)=O` [Impurity (II′d), (R)-2-[3-(2-fluorobenzyl)-4-(2-fluorobenzyloxy)-benzylamino]propanamide methanesulfonate], the IC50 is 70 nM at CYP3A4 (setting [5]); 30 nM at CYP2C19 (setting [6]); 620 nM on CYP2D6 (setting [7]); below 1000 nM at recombinant HERG channel [4]; 4340 nM on CYP2C9 (setting [8]). This compound also had an IC50 at 24 h in [3] of 11500 nM. Besides, on CYP1A2 (recombinant human CYP1A2, probe 3-cyano-7-ethoxycoumarin, human recombinant isoenzyme, substrate 3-cyano-7-ethoxycoumarin), the concentration for half-maximal inhibition (IC50) at 15 min is above 40000 nM.

On to `CS(=O)(=O)O.C[C@H](NCc1ccc(OCc2cccc(F)c2)cc1)C(N)=O` [Safinamide methanesulfonate (Ic), (S)-2-[4-(3-fluorobenzyloxy)benzylamino]propanamide methanesulfonate, reference compound], for which the MES % protection amounted to 50% in the data set on Male CD1 mice (mice, 3 mg/kg ip); 100% in the data set with Male CD1 mice (mice, 10 mg/kg ip); 100% in the data set on Male CD1 mice (mice, 30 mg/kg ip).
